# Publication PMC9964680, “Novel TDP1 Inhibitors: Disubstituted Thiazolidine-2,4-Diones Containing Monoterpene Moieties” (International Journal of Molecular Sciences, 2023)
# Columns and labels:
# MRC-5 cells = assay: Effect of compounds on topotecan cytotoxicity, MRC-5 (EZ4U); assay type: cell-based, human; conditions: MRC-5, 10 μM compound, topotecan 1 to 10 μM
# Method: According the EZ4U test data the thiazolidine-2,4-diones were shown not to enhance the cytotoxic effect of topotecan at 10 μM (Figure 2C,D). […] It can be speculated that the decisive factor is the use of the thiazolidine-2,4-dione fragment as a central molecular scaffold, which is a pharmacophore for many targets. In particular, thiazolidine-2,4-diones are well-known for their antidiabetic, antitumor [20], and anti-inflammatory activities. Such promiscuity can lead to binding to a number of proteins/enzymes in cells other than TDP1.
# Human colon adenocarcinoma HCT-116 and human lung fibroblast MRC-5 cell lines were provided by the Cell Culture Bank of the State Research Center for Virology and Biotechnology Vector, Novosibirsk, Russia. Cells were cultured in DMEM medium (Invitrogen) supplemented with 10% fetal bovine serum (FBS) (Invitrogen), penicillin (100 units/mL), and streptomycin (100 µg/mL) at 37 °C and 5% CO2 in a humid atmosphere. After the formation of a 30–50% monolayer, the tested compounds were added to the medium. Because the compounds are soluble in DMSO, we minimized the DMSO content in the culture medium. The volume of the added reagents was 1/100 of the total volume of the culture medium, and the amount of DMSO was 1% of the final volume. Control cells were grown in the presence of 1% DMSO. […]
# Human recombinant TDP1 = biological target: T1, Human recombinant TDP1 (Homo sapiens, UniProt Q9NUW8); assay: Real-time oligonucleotide biosensor assay of TDP1 activity; assay type: biochemical; conditions: 1.5 nM TDP1, 50 nM biosensor, 26 °C, at least three experiments; read-out: TDP1 inhibitory activity IC50
# T1 construct: made in house
# T1 sequence (Q9NUW8 whole entry): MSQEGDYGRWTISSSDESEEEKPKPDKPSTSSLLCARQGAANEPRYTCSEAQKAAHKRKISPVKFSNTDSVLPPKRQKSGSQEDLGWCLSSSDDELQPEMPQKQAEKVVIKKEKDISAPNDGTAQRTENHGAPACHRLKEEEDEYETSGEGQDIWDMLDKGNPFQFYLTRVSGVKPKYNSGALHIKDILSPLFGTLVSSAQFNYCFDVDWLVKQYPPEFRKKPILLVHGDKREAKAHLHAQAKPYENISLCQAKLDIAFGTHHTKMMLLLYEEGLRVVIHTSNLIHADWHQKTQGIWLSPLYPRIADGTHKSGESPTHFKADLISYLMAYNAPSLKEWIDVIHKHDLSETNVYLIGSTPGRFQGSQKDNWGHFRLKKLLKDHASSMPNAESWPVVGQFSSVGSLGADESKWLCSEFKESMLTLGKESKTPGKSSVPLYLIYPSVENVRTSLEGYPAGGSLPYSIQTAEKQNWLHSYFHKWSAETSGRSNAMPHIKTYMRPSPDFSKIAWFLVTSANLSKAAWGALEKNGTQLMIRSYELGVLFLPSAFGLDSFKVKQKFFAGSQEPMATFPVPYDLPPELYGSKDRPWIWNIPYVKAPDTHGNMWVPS
# Method: The inhibiting activity of the compounds against TDP1 was investigated using a real-time oligonucleotide biosensor assay.
# The biosensor (5′-[FAM] AAC GTC AGGGTC TTC C [BHQ]-3′) was synthesized in the Laboratory of Nucleic Acid Chemistry at the Institute of Chemical Biology and Fundamental Medicine (Novosibirsk, Russia) and was used for TDP1 enzyme activity real-time fluorescence detection. The reaction mixture (200 µL) contained a TDP1 reaction buffer (50 mM Tris-HCl, pH 8.0, 50 mM NaCl, and 7 mM β-mercaptoethanol), 50 nM oligonucleotide, varied concentrations of the tested compounds, and purified TDP1 in a final concentration of 1.5 nM. The recombinant TDP1 was purified to homogeneity by chromatography on Ni-chelating resin and phosphocellulose P11, as described, using plasmid pET 16B-TDP1, kindly provided by Dr. K.W. Caldecott (University of Sussex, United Kingdom).
# The reaction mixtures were incubated at a constant temperature of 26 °C in a POLARstar OPTIMA fluorimeter (BMG LABTECH, GmbH, Ortenberg, Germany). Fluorescence intensity was measured (Ex485/Em520 nm) every 1 min for 10 min. The average values of the half maximal inhibitory concentration (IC50) were determined using a six-point concentration response curve and calculated using MARS Data Analysis 2.0 (BMG LABTECH). The 50% inhibitory concentration (IC50) was defined as the concentration of the compound that inhibited 50% of the enzyme activity, when compared to the untreated controls. At least three independent experiments were carried out to obtain the IC50 values.
structure (smiles),measurement,setting,value
"CC1(C)[C@H]2CC=C(CCN3C(=O)S/C(=C\c4ccc(Br)s4)C3=O)[C@@H]1C2 [Compound 21b, (Z)-5-((5-bromothiophen-2-yl)methylene)-3-(2-((1R,5S)-6,6-dimethylbicyclo[3.1.1]hept-2-en-2-yl)ethyl)thiazolidine-2,4-dione]",effect on the cytotoxic effect of topotecan,MRC-5 cells,protects MRC-5 cells
same,IC50,Human recombinant TDP1,2500 ± 400 nM
